Measured values as given in patent US6720346B2, “Thiazole benzamide derivatives and pharmaceutical compositions for inhibiting cell proliferation” (Agouron Pharmaceuticals, Inc., priority 2001, dated 2004).

Experiments:
HCT-116 cell line = assay: Inhibition of cell growth, MTT tetrazolium salt assay; format: cell-based; details: HCT-116 cells; for HCT-116 % Inhibition at 0.1 μM: 0.1 μM compound; for HCT-116 % Inhibition at 0.25 μM: 0.25 μM compound
Method in brief: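 HCT-116 cells in McCoy's 5A were dosed 4 h after plating with compounds in 0.5% DMSO and grown 3–5 days at 37 °C. Then 0.2 mg/mL MTT was added for 4 h and formazan absorbance read at 540 nm. IC50/IC90 came from semi-log plots against DMSO-only controls.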

CDK2/cyclin A = target: T1, CDK2/cyclin A (Homo sapiens, UniProt P24941); assay: Inhibition of CDK2/cyclin A retinoblastoma kinase activity (Ki; % inhibition); format: biochemical; details: 0.03 μM compound
T1 construct: made in house; host or cells: CDK2: insect cells (baculovirus); cyclin A: E. coli
Method in brief: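 Radiometric filter assay of CDK2/proteolyzed cyclin A (baculovirus-expressed human CDK2, 10 or 19 nM) phosphorylating an Rb fragment with 25 μM [³²P/³³P]ATP in pH 7.4 HEPES, 2% DMSO, at 30 °C for 60 or 75 min under initial-rate conditions. Library compounds screened at 30 nM for % inhibition; apparent Ki from concentration series fit to competitive or tight-binding inhibition equations.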

human CDK4/cyclin D3 = target: T2, human CDK4/cyclin D3 (Homo sapiens, UniProt P11802); assay: Inhibition of CDK4/cyclin D retinoblastoma kinase activity (Ki; % inhibition); format: biochemical; details: 0.03 μM compound
T2 construct: made in house; host or cells: insect cells co-infected with baculovirus vectors
Method in brief: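 Insect-cell-expressed CDK4 with truncated cyclin D3 (1-264), 5 nM, phosphorylating His-tagged Rb fragment (386-928) with 25 μM [32/33P]ATP at pH 7.4, 30 °C, 20 min (60 min for tight binders). Filter capture, phosphorimager read; % inhibition at 30 nM compound, Ki from competitive or tight-binding fits.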

T2 sequence (P11802 whole entry): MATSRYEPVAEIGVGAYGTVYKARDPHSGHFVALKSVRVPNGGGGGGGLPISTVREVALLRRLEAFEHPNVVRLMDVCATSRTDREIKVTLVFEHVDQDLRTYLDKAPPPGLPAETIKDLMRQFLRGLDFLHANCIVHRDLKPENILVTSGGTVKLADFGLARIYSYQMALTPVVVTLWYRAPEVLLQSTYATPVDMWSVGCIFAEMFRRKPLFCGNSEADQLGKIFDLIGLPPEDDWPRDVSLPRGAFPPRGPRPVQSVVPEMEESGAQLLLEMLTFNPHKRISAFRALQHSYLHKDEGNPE
T2 sequence (P30281 1-264 partner limits assumed): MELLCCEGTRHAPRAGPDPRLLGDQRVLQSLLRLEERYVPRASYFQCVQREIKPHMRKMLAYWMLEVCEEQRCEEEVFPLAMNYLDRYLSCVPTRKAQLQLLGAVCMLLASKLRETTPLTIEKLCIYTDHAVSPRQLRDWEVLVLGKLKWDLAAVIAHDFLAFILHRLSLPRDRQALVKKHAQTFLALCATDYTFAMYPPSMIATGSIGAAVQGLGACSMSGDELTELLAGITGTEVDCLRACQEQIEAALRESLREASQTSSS

Row | Compound | HCT-116 % Inhibition at 0.1 μM (HCT-116 cell line) [%] | HCT-116 % Inhibition at 0.25 μM (HCT-116 cell line) [%] | CDK2 % Inhibition at 0.03 μM (CDK2/cyclin A) [%] | CDK4 % Inhibition at 0.03 μM (human CDK4/cyclin D3) [%]
1 | CCCN(CCc1ccccn1)C(=O)c1ccc(Nc2nc(N)c(C(=O)c3c(F)cccc3F)s2)cc1 [Example G322] | 13 | 50 | −12 | 4
2 | N#CCCNc1ccccc1NC(=O)c1ccc(Nc2nc(N)c(C(=O)c3c(F)cccc3F)s2)cc1 [Example G323] | 14 | 72 | −14 | 7
3 | Nc1nc(Nc2ccc(C(=O)NCc3cccc(Cl)c3)cc2)sc1C(=O)c1c(F)cccc1F [Example G324] | 5 | 60 | 28 | 26
4 | Nc1nc(Nc2ccc(C(=O)NCCCc3ccccc3)cc2)sc1C(=O)c1c(F)cccc1F [Example G325] | 6 | 51 | 13 | 23
5 | Nc1nc(Nc2ccc(C(=O)NCCO)cc2)sc1C(=O)c1c(F)cccc1F [Example G326] | 11 | 13 | 12 | 22
6 | CC[C@H](C)[C@@H](CO)NC(=O)c1ccc(Nc2nc(N)c(C(=O)c3c(F)cccc3F)s2)cc1 [Example G327] | 8 | 55 | −7 | 11
7 | Nc1nc(Nc2ccc(C(=O)Nc3ccc(CCO)cc3)cc2)sc1C(=O)c1c(F)cccc1F [Example G328] | 33 | 89 | 19 | 29
8 | CCCCC(CO)NC(=O)c1ccc(Nc2nc(N)c(C(=O)c3c(F)cccc3F)s2)cc1 (stereo not drawn) [Example G329] | 9 | 56 | 10 | 19
9 | Cc1cc(NC(=O)c2ccc(Nc3nc(N)c(C(=O)c4c(F)cccc4F)s3)cc2)ccc1F [Example G330] | 2 | 55 | −1 | 12
10 | CCCCN(CC)CCNC(=O)c1ccc(Nc2nc(N)c(C(=O)c3c(F)cccc3F)s2)cc1 [Example G331] | 54 | 93 | 1 | 37
11 | COc1cccc(CNC(=O)c2ccc(Nc3nc(N)c(C(=O)c4c(F)cccc4F)s3)cc2)c1OC [Example G332] | 21 | 66 | 17 | 14
12 | CC(C)C[C@@H](CO)NC(=O)c1ccc(Nc2nc(N)c(C(=O)c3c(F)cccc3F)s2)cc1 [Example G333] | 4 | 51 | −16 | −5
13 | Nc1nc(Nc2ccc(C(=O)NCCCO)cc2)sc1C(=O)c1c(F)cccc1F [Example G334] | 6 | 41 | −2 | 8
14 | CC(C)NC(=O)CN1CCN(C(=O)c2ccc(Nc3nc(N)c(C(=O)c4c(F)cccc4F)s3)cc2)CC1 [Example G335] | 3 | 42 | 2 | 21
15 | Nc1nc(Nc2ccc(C(=O)NCc3ccc(Cl)c(Cl)c3)cc2)sc1C(=O)c1c(F)cccc1F [Example G336] | 12 | 51 | 36 | 36
